Measurements reported in patent US8987195B2 (priority 2012, dated 2015).
Read-outs that look alike come from different tables or passages of the source.

Columns and labels:
HCV genotype 1b replicon = experiment: HCV replicon assay, genotype 1b replicon EC50; type: cell-based, Hepatitis C virus; conditions: Hepatitis C virus, genotype 1b replicon, read-out: EC50 [gt-1b]
Method in brief: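 Readout was replicon RNA copy number, by 32P-probe protection or TaqMan normalized to cellular cyclophilin A RNA, or luciferase activity for luciferase:Neo^r fusion lines. Cells were exposed to serially diluted compound for 24-48 hours without G418, then washed and lysed. EC50 derived from four-parameter fit relative to DMSO.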

[1] = target: HCV NS3/4A protease genotype 1b (Hepatitis C virus genotype 1b, UniProt P26663); experiment: HCV NS3/4A protease time-resolved fluorescence (TRF) assay, Ki against genotype 1b; type: biochemical; conditions: IC50 [gt-1b] (nM), NS3/4A genotype 1b, enzyme 0.2 nM
Method in brief: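 Enzyme was pre-incubated 30 min with inhibitor in HEPES pH 7.5 buffer (150 mM NaCl, 15% glycerol, 10 mM DTT). Reaction ran 2.5 h at room temperature with 25 nM europium TRF peptide substrate, read at ex 340/em 615 nm. Enzyme levels: 0.2 nM (1b), 0.4 nM (A156T), 0.025 nM (3a). Ki came from four-parameter IC50 via IC50=Ki(1+[S]/KM).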

`Cc1nc2ccccc2c2c1O[C@]1(CC2)C[C@H]2C(=O)N[C@]3(C(=O)NS(=O)(=O)C4(C)CC4)C[C@H]3/C=C\CCCCC[C@H](NC(=O)NCCc3ccccc3)C(=O)N2C1` [Example 288, (2R,6S,12Z,13aS,14aR,16aS)-5′-methyl-N-[(1-methylcyclopropyl)sulfonyl]-5,16-dioxo-6-{[(2-phenylethyl)carbamoyl]amino}-1,1′,2′,6,7,8,9,10,11,13a,14,15,16,16a-tetradecahydrospiro[cyclopropa[e]pyrrolo[1,2-a][1,4]diazacyclopentadecine-2,3′-pyrano[2,3-c]quinoline]-14a(5H)-carboxamide] showed an EC50 (HCV genotype 1b replicon; HCOOH salt) of 614 nM and an IC50 ([1]; HCOOH salt) of 0.131 nM.
Molecule `CCN(CC)C(=O)N[C@H]1CCCCC/C=C\[C@@H]2C[C@@]2(C(=O)NS(=O)(=O)C2(C)CC2)NC(=O)[C@@H]2C[C@]3(CCc4c(c(C)nc5ccccc45)O3)CN2C1=O` [Example 289, (2R,6S,12Z,13aS,14aR,16aS)-6-[(diethylcarbamoyl)amino]-5′-methyl-N-[(1-methylcyclopropyl)sulfonyl]-5,16-dioxo-1,1′,2′,6,7,8,9,10,11,13a,14,15,16,16a-tetradecahydrospiro[cyclopropa[e]pyrrolo[1,2-a][1,4]diazacyclopentadecine-2,3′-pyrano[2,3-c]quinoline]-14a(5H)-carboxamide] has an EC50 (HCV genotype 1b replicon; HCOOH salt) of 7 nM and an IC50 ([1]; HCOOH salt) of 0.023 nM.
Molecule `Cc1nc2ccccc2c2c1O[C@]1(CC2)C[C@H]2C(=O)N[C@]3(C(=O)NS(=O)(=O)C4(C)CC4)C[C@H]3/C=C\CCCCC[C@H](NC(=O)N3CCCCC3)C(=O)N2C1` [Example 290, (2R,6S,12Z,13aS,14aR,16aS)-5′-methyl-N-[(1-methylcyclopropyl)sulfonyl]-5,16-dioxo-6-[(piperidin-1-ylcarbonyl)amino]-1,1′,2′,6,7,8,9,10,11,13a,14,15,16,16a-tetradecahydrospiro[cyclopropa[e]pyrrolo[1,2-a][1,4]diazacyclopentadecine-2,3′-pyrano[2,3-c]quinoline]-14a(5H)-carboxamide] has an EC50 (HCV genotype 1b replicon; HCOOH salt) of 7.02 nM and an IC50 ([1]; HCOOH salt) of 0.017 nM.
With `Cc1nc2ccccc2c2c1O[C@]1(CC2)C[C@H]2C(=O)N[C@]3(C(=O)NS(=O)(=O)C4(C)CC4)C[C@H]3/C=C\CCCCC[C@H](NC(=O)N3CCOCC3)C(=O)N2C1` [Example 291, (2R,6S,12Z,13aS,14aR,16aS)-5′-methyl-N-[(1-methylcyclopropyl)sulfonyl]-6-[(morpholin-4-ylcarbonyl)amino]-5,16-dioxo-1,1′,2′,6,7,8,9,10,11,13a,14,15,16,16a-tetradecahydrospiro[cyclopropa[e]pyrrolo[1,2-a][1,4]diazacyclopentadecine-2,3′-pyrano[2,3-c]quinoline]-14a(5R)-carboxamide] the EC50 (HCV genotype 1b replicon; HCOOH salt) was 84.6 nM and the IC50 ([1]; HCOOH salt) was 0.032 nM.
`Cc1nc2ccccc2c2c1O[C@]1(CC2)C[C@H]2C(=O)N[C@]3(C(=O)NS(=O)(=O)C4(C)CC4)C[C@H]3/C=C\CCCCC[C@H](NC(=O)N(C)c3ccccc3)C(=O)N2C1` [Example 292, (2R,6S,12Z,13aS,14aR,16aS)-5′-methyl-N-[(1-methylcyclopropyl)sulfonyl]-6-{[methyl(phenyl)carbamoyl]amino}-5,16-dioxo-1,1′,2′,6,7,8,9,10,11,13a,14,15,16,16a-tetradecahydrospiro[cyclopropa[e]pyrrolo[1,2-a][1,4]diazacyclopentadecine-2,3′-pyrano[2,3-c]quinoline]-14a(5H)-carboxamide] showed an EC50 (HCV genotype 1b replicon; HCOOH salt) of 27.4 nM and an IC50 ([1]; HCOOH salt) of 0.077 nM.
In the case of `Cc1nc2ccccc2c2c1O[C@]1(CC2)C[C@H]2C(=O)N[C@]3(C(=O)NS(=O)(=O)C4(C)CC4)C[C@H]3/C=C\CCCCC[C@H](NC(=O)N(C(C)C)C(C)C)C(=O)N2C1` [Example 293, (2R,6S,12Z,13aS,14aR,16aS)-6-{[di(propan-2-yl)carbamoyl]amino}-5′-methyl-N-[(1-methylcyclopropyl)sulfonyl]-5,16-dioxo-1,1′,2′,6,7,8,9,10,11,13a,14,15,16,16a-tetradecahydrospiro[cyclopropa[e]pyrrolo[1,2-a][1,4]diazacyclopentadecine-2,3′-pyrano[2,3-c]quinoline]-14a(5H)-carboxamide], the EC50 (HCV genotype 1b replicon; HCOOH salt) is reported as 4.87 nM and the IC50 ([1]; HCOOH salt) is reported as 0.021 nM.
For `COc1ccc2nc(C(C)C)c3c(c2c1)CC[C@]1(C[C@H]2C(=O)N[C@]4(C(=O)NS(=O)(=O)C5(C)CC5)C[C@H]4/C=C\CCCCC[C@H](NC(=O)OC(C)(C)C(F)(F)F)C(=O)N2C1)O3` [Example 295, 1,1,1-trifluoro-2-methylpropan-2-yl [(2R,6S,12Z,13aS,14aR,16aS)-9′-methoxy-14a-{[(1-methylcyclopropyl)sulfonyl]carbamoyl}-5,16-dioxo-5′-(propan-2-yl)-1,1′,2′,5,6,7,8,9,10,11,13a,14,14a,15,16,16a-hexadecahydrospiro[cyclopropa[e]pyrrolo[1,2-a][1,4]diazacyclopentadecine-2,3′-pyrano[2,3-c]quinolin]-6-yl]carbamate], the EC50 (HCV genotype 1b replicon) was 2.36 nM and the IC50 [1] was 0.024 nM.
In the case of `Cc1nc2ccc(OCC(F)(F)F)cc2c2c1O[C@]1(CC2)C[C@H]2C(=O)N[C@]3(C(=O)NS(=O)(=O)C4(C)CC4)C[C@H]3/C=C\CCCCC[C@H](NC(=O)OC(C)(C)C)C(=O)N2C1` [Example 296, tert-butyl [(2R,6S,12Z,13aS,14aR,16aS)-5′-methyl-14a-{[(1-methylcyclopropyl)sulfonyl]carbamoyl}-5,16-dioxo-9′-(2,2,2-trifluoroethoxy)-1,1′,2′,5,6,7,8,9,10,11,13a,14,14a,15,16,16a-hexadecahydrospiro[cyclopropa[e]pyrrolo[1,2-a][1,4]diazacyclopentadecine-2,3′-pyrano[2,3-c]quinolin]-6-yl]carbamate], the EC50 (HCV genotype 1b replicon) is reported as 2.55 nM and the IC50 [1] is reported as 0.009 nM.
Molecule `Cc1nc2ccc(OC(F)(F)F)cc2c2c1O[C@]1(CC2)C[C@H]2C(=O)N[C@]3(C(=O)NS(=O)(=O)C4(C)CC4)C[C@H]3/C=C\CCCCC[C@H](NC(=O)OCC(C)(C)C)C(=O)N2C1` [Example 297, 2,2-dimethylpropyl [(2R,6S,12Z,13aS,14aR,16aS)-5′-methyl-14a-{[(1-methylcyclopropyl)sulfonyl]carbamoyl}-5,16-dioxo-9′-(trifluoromethoxy)-1,1′,2′,5,6,7,8,9,10,11,13a,14,14a,15,16,16a-hexadecahydrospiro[cyclopropa[e]pyrrolo[1,2-a][1,4]diazacyclopentadecine-2,3′-pyrano[2,3-c]quinolin]-6-yl]carbamate] has an EC50 (HCV genotype 1b replicon) of 6.06 nM and an IC50 [1] of 0.009 nM.
`Cc1nc2ccc(OC(F)(F)F)cc2c2c1O[C@]1(CC2)C[C@H]2C(=O)N[C@]3(C(=O)NS(=O)(=O)C4(C)CC4)C[C@H]3/C=C\CCCCC[C@H](NC(=O)OC(C)(C)C(F)(F)F)C(=O)N2C1` [Example 298, 1,1,1-trifluoro-2-methylpropan-2-yl [(2R,6S,12Z,13aS,14aR,16aS)-5′-methyl-14a-{[(1-methylcyclopropyl)sulfonyl]carbamoyl}-5,16-dioxo-9′-(trifluoromethoxy)-1,1′,2′,5,6,7,8,9,10,11,13a,14,14a,15,16,16a-hexadecahydrospiro[cyclopropa[e]pyrrolo[1,2-a][1,4]diazacyclopentadecine-2,3′-pyrano[2,3-c]quinolin]-6-yl]carbamate] was tested, and the EC50 (HCV genotype 1b replicon) was 6.31 nM and the IC50 [1] was 0.017 nM.
Work on `COc1ccc2nc(C(C)C)c3c(c2c1)C(F)(F)C[C@]1(C[C@H]2C(=O)N[C@]4(C(=O)NS(=O)(=O)C5(C)CC5)C[C@H]4/C=C\CCCCC[C@H](NC(=O)OC(C)(C)C(F)(F)F)C(=O)N2C1)O3` [Example 299, 1,1,1-trifluoro-2-methylpropan-2-yl [(2S,6S,12Z,13aS,14aR,16aS)-1′,1′-difluoro-9′-methoxy-14a-{[(1-methylcyclopropyl)sulfonyl]carbamoyl}-5,16-dioxo-5′-(propan-2-yl)-1,1′,2′,5,6,7,8,9,10,11,13a,14,14a,15,16,16a-hexadecahydrospiro[cyclopropa[e]pyrrolo[1,2-a][1,4]diazacyclopentadecine-2,3′-pyrano[2,3-c]quinolin]-6-yl]carbamate] yielded an EC50 (HCV genotype 1b replicon; K+ salt) of 6.37 nM and an IC50 ([1]; K+ salt) of 0.02 nM.
`Cc1nc2ccccc2c2c1O[C@]1(CC2)C[C@H]2C(=O)N[C@]3(C(=O)NS(=O)(=O)C4(C)CC4)C[C@H]3/C=C\CCCCC[C@H](NC(=O)OC(C)(C)C(F)(F)C(F)(F)F)C(=O)N2C1` [Example 300, 3,3,4,4,4-pentafluoro-2-methylbutan-2-yl [(2R,6S,12Z,13aS,14aR,16aS)-5′-methyl-14a-{[(1-methylcyclopropyl)sulfonyl]carbamoyl}-5,16-dioxo-1,1′,2′,5,6,7,8,9,10,11,13a,14,14a,15,16,16a-hexadecahydrospiro[cyclopropa[e]pyrrolo[1,2-a][1,4]diazacyclopentadecine-2,3′-pyrano[2,3-c]quinolin]-6-yl]carbamate] was tested, and the EC50 (HCV genotype 1b replicon) was 3.12 nM and the IC50 [1] was 0.021 nM.
`Cc1nc2ccc(OCC(F)(F)F)cc2c2c1O[C@]1(CC2)C[C@H]2C(=O)N[C@]3(C(=O)NS(=O)(=O)C4(C)CC4)C[C@H]3/C=C\CCCCC[C@H](NC(=O)OC(C)(C)C(F)(F)F)C(=O)N2C1` [Example 301, 1,1,1-trifluoro-2-methylpropan-2-yl [(2R,6S,12Z,13aS,14aR,16aS)-5′-methyl-14a-{[(1-methylcyclopropyl)sulfonyl]carbamoyl}-5,16-dioxo-9′-(2,2,2-trifluoroethoxy)-1,1′,2′,5,6,7,8,9,10,11,13a,14,14a,15,16,16a-hexadecahydrospiro[cyclopropa[e]pyrrolo[1,2-a][1,4]diazacyclopentadecine-2,3′-pyrano[2,3-c]quinolin]-6-yl]carbamate] gave an EC50 (HCV genotype 1b replicon) of 3.46 nM and an IC50 [1] of 0.013 nM.
